{
  "source": "patent US20230346827A1",
  "about": "(priority 2020, published 2023)",
  "key": {"blood coagulation (APTT)": {"system": "blood coagulation (APTT)", "experiment": "Activated partial thromboplastin time (APTT) in blood of ALS patients after s.c. LMW-DS 1 mg/kg (Example 5)", "format": "in vivo, human", "method": "This was a single-centre, open single-arm study where the safety, tolerability and efficacy of subcutaneous (s.c.) administered LMW-DS was evaluated in patients with ALS. There were 10 planned visits to the clinic: 1 screening visit divided in 2 parts (Visit 1a and Visit 1b), 5 IMP administration visits (Visit 2 to Visit 6) and 3 follow-up visits (Visit 7 to Visit 9). Each individual patient’s study participation was planned to be approximately 4 months, including the screening and follow-up visits.\nThe active pharmaceutical ingredient of the IMP was a low molecular weight dextran sulfate (LMW-DS), (ILB®, Tikomed AB, Viken, Sweden, WO 2016/076780). LMW-DS was prepared as a solution for s.c. injection and consisted of 20 mg/mL LMW-DS and 9 mg/mL NaCl. Each glass vial contained 10 mL. The dose administered depended on the patient’s body weight at Visit 2, prior to the first LMW-DS administration. LMW-DS was injected s.c. on alternating sides of the abdomen, thigh or the buttock (in that order of priority). Five injections of 1 mg/kg, with 1 week dosing interval, were administered. Changes in activated partial thromboplastin time (APTT) were recorded from blood samples taken at each visit."}, "[1]": {"system": "Human umbilical vein endothelial cells (HUVECs)", "experiment": "Gene expression array and pathway analysis, HUVECs, LMW-DS 0.01 mg/ml 48 h", "format": "cell-based", "conditions": "for number of genes: abolished nutrient effect / number of genes: total / number of genes: enhanced response to nutrients / number of genes: not different from control / Activation z-score / Predicted activation state relative D2 control: HUVECs; for Activation z-score / Predicted activation state relative D2 control: D2 LMW-DS treatment", "method": "For each cell line, n=8 × 25 cm^2 culture flasks were set up. Two flasks were harvested for each cell type on the day of treatment (24 hours after seeding). This represents the Day0 time point. From the remaining flasks, three flasks were treated with Control Medium and three were treated with Culture Medium (CM) containing LMW-DS to give a final concentration of 0.01 mg/ml. Cells from the treated flasks were collected after 48 hours. Therefore the collected data represent (a) untreated cells (Day0 Controls and Day2 Controls) and (b) cells treated with LMW-DS (ILB®, Tikomed AB, Viken, Sweden, WO 2016/076780) for 48 hours (Day2 LMW-DS treated).\nMedium 200 + Large Vessel Endothelial Supplement (M200+LVES) additive (1:50) was prepared and pre-warmed to 37° C. Cells were thawed in a 37° C. water bath for no longer than 2 min and gently transferred into a 50 ml tube containing 20 ml Dulbecco’s Modified Eagle Medium, Nutrient Mixture F-12 (DMEM-F12). The cell suspension was mixed by inverting the tube carefully twice. Cells were spun at 400 × g for 10 minutes. Supernatant removed and cells were re-suspended in 10 ml of culture media (M200+LVES additive).\nCells were counted with the Cellometer. 1,000,000 cells/flask were seeded in 25 cm^2 flasks (n=8) and medium was topped up to a total of 5 ml per flask. Cells were incubated at 37° C. with 5% CO2. Cells were allowed to settle for 24 hours before LMW-DS treatment.\nLMW-DS was provided at a stock concentration of 20 mg/ml and was kept in a temperature monitored refrigerator at 4° C. A fresh 100x LMW-DS stock (1.0 mg/ml) was prepared in sterile DMEM-F12. The concentrated drug stock was sterile filtered and added to the respective culture media (19.6 ml CM and 0.4 ml LMW-DS stock solution). The Control was made using 19.6 ml CM and 0.4 ml of DMEM-F12. LMW-DS and CM were added to the respective flasks (5 ml each) to reach the 0.01 mg/ml concentration of LMW-DS in each dish with a total of 10 ml CM each.\nCM was aspirated into a clean and labelled 15 ml Falcon tube. The flasks (without culture medium) were placed into the -80° C. freezer for 30 minutes. The CM in the Falcon tubes was spun at 3000 x g for 5 minutes. Supernatant was removed and the small pellet was re-suspended in 2.5 ml Trizol:Water (4:1) solution at room temperature (RT, ~22° C.).\nTwo aliquots of 1 ml lysate were removed from each sample and 200 µl of chloroform was added to each (0.2 ml of chloroform per 1 ml of TRIzol Reagent used during the cell lysis step) and the tube was shaken vigorously. Samples were stored at RT for 2-3 minutes and subsequently centrifuged at 12,000 x g for 15 minutes at 4° C.\nThe RNA was precipitated from the aqueous phase by adding an equal amount of 100% ethanol. The precipitated RNA was fixed onto a Spin Cartridge, washed twice and dried. The RNA was eluted in 50 µl warm RNase-Free Water. The amount and quality of the purified RNA was measured by Nanodrop. The RNA was stored at -80° C. before transfer to Source Bioscience for Array analysis.\nThe expression data were downloaded into separate files for each cell line. The ‘Background corrected’ expression is the data from the “gProcessedSignal” of the arrays that is the result of the background signal extracted from the actual signal of the relevant probe. This is the most often used variable in array analysis. The background corrected signal was log2 transformed for all samples for statistical analysis. To reduce the false discovery rate in the samples, the signals that were below ‘expression level’ were removed. The ‘below expression’ level was set at 5 for the log2 transformed expression values.\nBased on the expression pattern of the Control probes on each array it was decided to carry out Median Centering for all arrays before analysis to reduce the variability of the results. […]"}},
  "data": [
    {"substance": "sodium salt of dextran sulfate [LMW-DS]", "values": [
      {"measurement": "APTT relative change from baseline", "setting": "blood coagulation (APTT); 2 hours post-dosing", "value": "+33.5%"},
      {"measurement": "APTT relative change from baseline", "setting": "blood coagulation (APTT); 2.5 hours post-dosing", "value": "+26.5%"},
      {"measurement": "time at which APTT values returned to pre-dose levels", "setting": "blood coagulation (APTT); post dosing", "value": 6, "unit": "h"},
      {"measurement": "genes regulating cell attachment (of 197) differentially regulated", "setting": "[1]", "value": "none"},
      {"measurement": "number of differentially expressed genes", "setting": "[1]; D0 control to D2 LMW-DS treated", "value": 1779},
      {"measurement": "number of differentially expressed genes", "setting": "[1]; D2 control to D2 LMW-DS treated", "value": 76},
      {"measurement": "number of genes: abolished nutrient effect", "setting": "[1]; no effect", "value": 67},
      {"measurement": "number of genes: total", "setting": "[1]; no effect", "value": 67},
      {"measurement": "number of genes: abolished nutrient effect", "setting": "[1]; significant downregulation", "value": 4},
      {"measurement": "number of genes: enhanced response to nutrients", "setting": "[1]; significant downregulation", "value": 120},
      {"measurement": "number of genes: not different from control", "setting": "[1]; significant downregulation", "value": 167},
      {"measurement": "number of genes: total", "setting": "[1]; significant downregulation", "value": 291},
      {"measurement": "number of genes: abolished nutrient effect", "setting": "[1]; significant upregulation", "value": 11},
      {"measurement": "number of genes: enhanced response to nutrients", "setting": "[1]; significant upregulation", "value": 229},
      {"measurement": "number of genes: not different from control", "setting": "[1]; significant upregulation", "value": 1326},
      {"measurement": "number of genes: total", "setting": "[1]; significant upregulation", "value": 1566},
      {"measurement": "number of genes: abolished nutrient effect", "setting": "[1]; total", "value": 82},
      {"measurement": "number of genes: enhanced response to nutrients", "setting": "[1]; total", "value": 349},
      {"measurement": "number of genes: not different from control", "setting": "[1]; total", "value": 1493},
      {"measurement": "number of genes: total", "setting": "[1]; total", "value": 1924},
      {"measurement": "modulation of the effects of oxidative stress on mitochondria", "setting": "[1]; pathway analysis of gene expression", "value": "no significant modulation"},
      {"measurement": "genes altered in Control cultures with no changes in LMW-DS treated cultures", "setting": "[1]; two days", "value": 67},
      {"measurement": "genes downregulated by growth factors, downregulation stronger with LMW-DS", "setting": "[1]; two days", "value": 120},
      {"measurement": "genes downregulated in control cultures, upregulated in LMW-DS treated cultures", "setting": "[1]; two days", "value": 11},
      {"measurement": "genes increased in control cultures, downregulated in LMW-DS treated cultures", "setting": "[1]; two days", "value": 4},
      {"measurement": "genes upregulated in Control cultures, upregulation stronger with LMW-DS", "setting": "[1]; two days", "value": 229},
      {"measurement": "Activation z-score", "setting": "[1]; upstream regulator HGF", "value": 3.194},
      {"measurement": "Predicted activation state relative D2 control", "setting": "[1]; upstream regulator HGF", "value": "Activated relative to control"},
      {"measurement": "Activation z-score", "setting": "[1]; upstream regulator TGFβ1", "value": 1.429},
      {"measurement": "Predicted activation state relative D2 control", "setting": "[1]; upstream regulator TGFβ1", "value": "Activated relative to control"},
      {"measurement": "Activation z-score", "setting": "[1]; upstream regulator VEGF", "value": 3.432},
      {"measurement": "Predicted activation state relative D2 control", "setting": "[1]; upstream regulator VEGF", "value": "Activated relative to control"}
    ]}
  ]
}
